Assays:
[1] = clinical study in children with mild asthma: lower leg growth rate by knemometry; assay type: in vivo, human; conditions: for lower leg growth rate: 2-week treatment, children 6 to 12 years, placebo 0.412 mm/week
Description: (§1) The present study was conducted to determine the effects of ciclesonide at doses intended for the use in children on lower leg growth rate and HPA function in children with mild asthma.
(§2) METHODS: In a double blind, randomized, placebo-controlled, 4-period cross-over study, 24 children, 6 to 12 years of age, received ciclesonide 40, 80 and 160 μg or placebo via HFA-MDI once daily in the evening. Each 2-week treatment period was followed by a 2-week washout. Knemometry was performed at the beginning and the end of each treatment period. Cortisol levels in 12 h overnight urine were measured at the end of each treatment period.

[2] = clinical study in children with mild asthma: HPA function, cortisol in 12 h overnight urine; assay type: in vivo, human; conditions: 40, 80 and 160 μg once daily or placebo, 12 h overnight urine at end of each 2-week period
Description: as §1, §2

[3] = clinical study in children with mild asthma: tolerability; assay type: in vivo, human; conditions: 40, 80 and 160 μg once daily, 2 weeks
Description: as §1, §2

[4] = cited from earlier work
[5] = cited from earlier work; remark: listed apart in the source
[6] = 40, 80 and 160 μg once daily, 2 weeks

CC(C)C(=O)OCC(=O)[C@@]12O[C@H](C3CCCCC3)O[C@@H]1C[C@H]1[C@@H]3CCC4=CC(=O)C=C[C@]4(C)[C@H]3[C@@H](O)C[C@@]12C [ciclesonide, [11β,16α(R)]-16,17-[(Cyclohexylmethylen)bis(oxy)]-11-hydroxy-21-(2-methyl-1-oxopropoxy)pregna-1,4-dien-3,20-dion]
lower leg growth rate ([1]; 40 μg once daily in the evening via HFA-MDI): 0.425 mm/week
lower leg growth rate ([1]; 80 μg once daily in the evening via HFA-MDI): 0.397 mm/week
lower leg growth rate ([1]; 160 μg once daily in the evening via HFA-MDI): 0.370 mm/week
difference in lower-leg growth rates between ciclesonide treatments and placebo [1, 6]: No statistically significant differences
dose-response effect on lower leg growth rate [1, 6]: no statistically significant dose-response effect
urinary free cortisol adjusted for creatinine, difference between treatments [2]: no difference
tolerability [3]: well tolerated
systemic activity ([4]; in vivo): low systemic activity
anti-inflammatory activity compared with budesonide ([4]; relative to budesonide): higher
systemic activity compared with budesonide ([4]; relative to budesonide): three times lower
concentration of the drug in the lungs ([5]; in vivo): high
metabolism by liver oxidases ([5]; in vivo): very high
plasma half-life ([5]; in vivo): low plasma half-life
absorption after oral administration ([5]; oral): only moderately absorbed

Source: patent publication US8371292B2, “Use of ciclesonide for the treatment of respiratory diseases” (Nycomed GmbH, priority 2003, dated 2013)
